Entries after “also recorded” stand apart in the source; their conditions may differ. Peptide text beside a SMILES is read from it. * marks the point of attachment. Cbz = O=C(OCc1ccccc1)*
How the values were obtained:
[1] = test system: neonatal rat ventricular myocytes (NRVMs); conditions: NRVM cell culture model, Dreger 2002; cited from earlier work
[2] = test system: modulatory calcineurin interacting protein 1 (MCIP1); assay: Cytoblot assay for MCIP1 protein content in NRVM; format: cell-based, rat
Experimental: (§1) NRVM culture. For preparations of neonatal rat ventricular myocytes (NRVMs), hearts were removed from 10-20 newborn (1-2 days old) Sprague-Dawley rats. Isolated ventricles were pooled, minced and dispersed by three 20-minute incubations at 37° C. in Ads buffer (116 mM NaCl, 20 mM HEPES, 10 mM NaH2PO4, 5.5 mM glucose, 5 mM KCl, 0.8 mM MgSO4, pH 7.4) containing collagenase Type 11 (65 units/ml, Worthington) and pancreatin (0.6 mg/ml, GibcoBRL). Dispersed cells were applied to a discontinuous gradient of 40.5% and 58.5% (v/v) Percoll (Amersham Biosciences), centrifuged, and myocytes collected from the interface layer. Myocyte preparations were pre-plated in Dulbecco's modified Eagle's medium (DMEM, Cellgro), supplemented with 10% (v/v) charcoal stripped fetal bovine serum (FBS, HyClone), 4 mM L-glutamine and 1% penicillin/streptomycin for 1 hour at 37° C. to reduce fibroblast contamination, then plated at a density of 2.5×10^5 cells per well on 6-well tissue culture plates (or 10,000 cells/well on 96-well tissue culture plates) coated with a 0.2% (w/v) gelatin solution. […]
(§2) NRVM protein quantitation by cytoblot (alpha myosin, beta myosin, MCIP1). […] Plates were read in a 96-well luminometer (Packard Fusion).

NRVM = assay: Cytotoxicity assay (adenylate kinase release, ToxiLight) in NRVM; format: cell-based, rat; conditions: 48 hours, at MG132 concentrations that suppress hypertrophy (FIG. 4)
Experimental: (§3) NRVM culture. For preparations of neonatal rat ventricular myocytes (NRVMs), hearts were removed from 10-20 newborn (1-2 days old) Sprague-Dawley rats. Isolated ventricles were pooled, minced and dispersed by three 20-minute incubations at 37° C. in Ads buffer (116 mM NaCl, 20 mM HEPES, 10 mM NaH2PO4, 5.5 mM glucose, 5 mM KCl, 0.8 mM MgSO4, pH 7.4) containing collagenase Type 11 (65 units/ml, Worthington) and pancreatin (0.6 mg/ml, GibcoBRL). Dispersed cells were applied to a discontinuous gradient of 40.5% and 58.5% (v/v) Percoll (Amersham Biosciences), centrifuged, and myocytes collected from the interface layer. […]
(§4) ANF and toxicity assays. ANF in media supernatants was quantitated by competitive ELISA using a monoclonal anti-ANF antibody (Biodesign) and a biotinylated ANF peptide (Phoenix Peptide). Total cellular protein was quantitated by standard Coomassie dye-binding assay; cells were lysed in protein assay reagent (BioRad) and absorbance at A595 was measured after 1 hour. Cytotoxicity was quantitated by measuring release of adenylate kinase (AK) from cultured NRVM into culture medium (ToxiLight kit, Cambrex).

[3] = test system: total ubiquitinated protein; assay: Western blot analysis for total ubiquitinated protein in NRVM; format: cell-based, rat; conditions: range of MG132 concentrations, 48 hours (FIG. 6)
Experimental: as §3
(§5) Western Blots. […] Protein concentrations were determined by the bicinchoninic acid method (BCA Protein Assay, Pierce) with bovine serum albumin as a standard. Equivalent quantities of protein samples (10 μg/lane) were denatured in Laemmli buffer and resolved on Tris-glycine SDS-PAGE gels (4-20% acrylamide gradient, Invitrogen). […]

[4] = test system: alpha myosin heavy chain protein; assay: Cytoblot assay for alpha myosin heavy chain protein content in NRVM; format: cell-based, rat; conditions: MG132 100 nM, 48 hours, cytoblot (FIG. 1)
Experimental: as §1, §2

[5] = test system: β-myosin heavy chain protein; assay: Cytoblot assay for beta myosin heavy chain protein content in phenylephrine-treated NRVM; format: cell-based, rat; conditions: phenylephrine 20 μM, MG132 100 and 1000 nM, 48 hours, cytoblot (FIG. 2)
Experimental: as §1, §2

phospholamban (PLB) = assay: Western blot analysis of NRVM: phospholamban; format: cell-based, rat; conditions: with or without phenylephrine 20 μM, MG132 370, 1500 and 3000 nM, 48 hours, Western blot (FIG. 3)
Experimental: as §3, §5

alpha myosin heavy chain = assay: Western blot analysis of NRVM: alpha myosin heavy chain; format: cell-based, rat; conditions: with or without phenylephrine 20 μM, MG132 370, 1500 and 3000 nM, 48 hours, Western blot (FIG. 3)
Experimental: as §3, §5

[6] = test system: nuclear factor of activated T cells (NFAT); assay: Calcineurin-dependent nuclear import of GFP-NFAT in adenovirus-infected NRVM (immunofluorescence); format: cell-based, rat; conditions: NRVM infected with adenovirus encoding activated calcineurin and GFP-NFAT, MG132 1 μM (FIG. 7)
Experimental: as §1, with “solution. After 24 hours in culture, myocyte preparations were transferred to serum-free maintenance medium (DMEM supplemented with 0.1% (v/v) Nutridoma (Roche), L-glutamine and penicillin/streptomycin). Where indicated, NRVM were treated with test compounds for a period of 48 hrs.” for “solution.”

[7] = test system: atrial natriuretic factor (ANF) secretion; assay: Competitive ANF ELISA on media supernatants of phenylephrine-treated NRVM; format: cell-based; conditions: Rattus norvegicus, 48 h, phenylephrine 20 μM, 48 hours (FIG. 4), read-out: EC50 for suppression of PE-induced ANF secretion
Experimental: as §3, §4

phospho-phospholamban = assay: Western blot analysis of NRVM: phospho-phospholamban; format: cell-based, rat; conditions: with or without phenylephrine 20 μM, MG132 370, 1500 and 3000 nM, 48 hours, Western blot (FIG. 3)
Experimental: as §3, §5

SERCA = assay: Western blot analysis of NRVM: SERCA; format: cell-based, rat; conditions: with or without phenylephrine 20 μM, MG132 370, 1500 and 3000 nM, 48 hours, Western blot (FIG. 3)
Experimental: as §3, §5

MCIP1 protein = assay: Western blot analysis for MCIP1 protein in NRVM; format: cell-based, rat; conditions: range of MG132 concentrations, 48 hours (FIG. 6)
Experimental: as §3, §5

CC(C)C[C@@H](C=O)NC(=O)[C@H](CC(C)C)NC(=O)[C@H](CC(C)C)NC(=O)OCc1ccccc1 [MG132] (Cbz-Leu-Leu-Leu-aldehyde)
anti-hypertrophic effect (β-MyHC levels, cell size and morphology, BNP, sarcomeric actin) [1]: anti-hypertrophic | EC50 ([2]; Rattus norvegicus, 48 hours, cytoblot (FIG. 5), read-out: EC50 for induction of cardiac MCIP1 expression): 10 nM | MCIP1 protein expression (cytoblot) ([2]; range of MG132 concentrations, 48 hours (FIG. 5)): dose-dependent increase in expression of modulatory calcineurin interacting protein 1 (MCIP1); also recorded: increases cardiac modulatory calcineurin interacting protein 1 (MCIP1) protein expression | cytotoxicity (release of adenylate kinase) (NRVM): no release of adenylate kinase (AK); also recorded: non-cytotoxic concentrations | total ubiquitinated protein [3]: induced accumulation of ubiquitinated protein | alpha myosin heavy chain protein content [4]: significantly increased expression of alpha myosin heavy chain protein; also recorded: increases cardiac alpha myosin heavy chain protein expression | β-myosin heavy chain protein content [5]: effectively suppressed adrenergic agonist (phenylephrine) dependent upregulation of beta myosin heavy chain protein; also recorded: suppresses hypertrophic agonist-dependent increases in cardiac beta myosin heavy chain protein expression | expression of phospholamban (PLB) (phospholamban (PLB)): decreased expression of the SERCA inhibitory protein, phospholamban (PLB); also recorded: decreases expression of cardiac phospholamban | expression of alpha myosin heavy chain (Western blot) (alpha myosin heavy chain): increases expression of SERCA, alpha myosin heavy chain | calcineurin-dependent nuclear import of GFP-NFAT [6]: blocked the ability of constitutively activated calcineurin to promote nuclear import of NFAT; also recorded: suppresses calcineurin-dependent nuclear import | EC50 [7]: ~20 nM | PLB phosphorylation (phospho-phospholamban) (phospho-phospholamban): dose-dependent increase in PLB phosphorylation; also recorded: increases expression of SERCA, alpha myosin heavy chain and phospho-phospholamban | expression of SERCA protein (SERCA): increased in vitro expression of cardiac SERCA protein; also recorded: increases expression of SERCA | MCIP1 protein expression (Western blot) (MCIP1 protein): increases cardiac modulatory calcineurin interacting protein 1 (MCIP1) protein expression

— patent US20070015777A1, “Use of Inhibitors of the Ubiquitin Proteasome Pathway as a Method of Increasing Contractility of the Heart” (Myogen, Inc., priority 2005, published 2007)
